# In patent publication US12157742B2, “Kinase inhibitors exhibiting anti-cancer activity and their method of use” (ALLCRON PHARMA INC., priority 2018, dated 2024):
# Structures can show the parent of a compound that is named as a salt.
# Columns and labels:
# Set-up in all cases: cell survival: unit of the concentration uncertain
# [1] = tested on: Ph+ALL cell line BV173-T315I; assay: Cytotoxicity assay, BV173-T315I cells; type: cell-based
# Procedure: (§1) Cytotoxicity assay: CML patient derived cell lines K562 expressing BCR-ABL T315I, Ph+ALL cell line BV173-T315I, and mouse cell line Ba/F3 T315I were used for cytotoxicity testing. All these cell lines express T315I mutant of BCR-ABL. BV-173-T315I is also a model for blast crisis, the terminal stage in CML. Cell lines were cultured in Iscove's Modified Dulbecco's Medium (IMDM) containing L-glutamine and 25 mM Hepes. The cells were maintained at 37° C. in a humidified CO2 incubator. For cytotoxicity measurement 5000-8000 cells were plated into 96 well plates in quadruplicates. Drugs were dissolved in DMSO and cells were treated in increasing doses ranging from 1 to 10^7 fold. Control cells were treated with respective amounts of DMSO. Cells were incubated for 72 hours and, at the end of the incubation point cell, viability was determined. For this purpose, 25 μl of the cell culture from the 96 well plates were transferred to Ultracruz® black bottom 96 well plates (Santa Cruz Biotechnology) and 25 μl of a live cell detecting fluorescent reagent (Cellular Technology Limited (“CTL”)) was added to the cells. The cells and the CTL reagent was mixed thoroughly and centrifuged for 5 min, at the standard g levels normally used to accelerate settling of the cells to the bottom of the culture medium container without damaging the living cells, and the fluorescence was detected at 405 nm excitation using a CTL scanner. Viable cells will fluoresce green and the machine automatically scans and counts the number of viable cells from each well. The percentage of viable cells in drug treated samples relative to the number of viable cells in DMSO treated samples was then calculated. The data obtained were analyzed using Prism nonlinear regression software (Graphpad Software) for the curve fitting and determination of IC50 values.
# [2] = tested on: K562 expressing BCR-ABL T315I; assay: Cytotoxicity assay, K562-T315I cells; type: cell-based, human
# Procedure: as §1
# [3] = tested on: mouse cell line Ba/F3 T315I; assay: Cytotoxicity assay, Ba/F3-T315I cells; type: cell-based; settings: for cancer cell survival rate compared to the DMSO control: 72 hours
# Procedure: as §1
# [4] = about 10^−6 M to about 10^−5 M, 72 hours
compound,measurement,setting,value
"Cc1cc(NC(=O)CSc2nc3cc4c(cc3cc2C#N)OCCO4)n(C)n1 [AP-R357, 2-((8-cyano-2,3-dihydro-[1,4]dioxino[2,3-g]quinolin-7-yl)thio)-N-(1,3-dimethyl-1H-pyrazol-5-yl)acetamide]",cancer cell survival rate compared to the DMSO control,"[1]; about 30 μM, 72 hours",less than 6%
same,cancer cell survival rate compared to the DMSO control,"[2]; about 30 μM, 72 hours",less than 20%
same,cancer cell survival rate compared to the DMSO control,[3]; about 30 μM,less than 7%
"Cc1cccc(Cl)c1NC(=O)CSc1nc2cc3c(cc2cc1C#N)OCCO3 [AP-R342, N-(2-chloro-6-methylphenyl)-2-({8-cyano-2H,3H-[1,4]dioxino[2,3-g]quinolin-7-yl}sulfanyl)acetamide]",cancer cell survival rate compared to the DMSO control,[1]; [4],less than 7%
same,cancer cell survival rate compared to the DMSO control,[2]; [4],less than 7%
same,cancer cell survival rate compared to the DMSO control,[3]; about 10^−6 M to about 10^−5 M,less than 7%
"Cc1cc(CN2CCCC2)ccc1NC(=O)CSc1nc2cc3c(cc2cc1C#N)OCCO3 [AP-R352, 2-((8-cyano-2,3-dihydro-[1,4]dioxino[2,3-g]quinolin-7-yl)thio)-N-(2-methyl-4-(pyrrolidin-1-ylmethyl)phenyl)acetamide dihydrochloride]",IC50,"[1]; 72 hours, read-out: IC50 for cell killing",540 nM
same,IC50,"[2]; Homo sapiens, 72 hours, read-out: IC50 for cell killing",1090 nM
same,IC50,"[3]; Mus musculus, BaF3, 72 hours, read-out: IC50 for cell killing",800 nM
"Cc1cc(C(=O)Nc2ccc(CN3CCN(C)CC3)cc2)ccc1NC(=O)CSc1nc2cc3c(cc2cc1C#N)OCCO3 [AP-R234, 4-[2-(8-cyano-2H,3H-[1,4]dioxino[2,3-g]quinolin-7-ylsulfanyl)acetamido]-3-methyl-N-4-[(4-methylpiperazin-1-yl)methyl]phenylbenzamide hydrochloride]",cancer cell survival rate compared to the DMSO control,"[2]; dosage printed as 'about M', 72 hours",less than 4%
same,cancer cell survival rate compared to the DMSO control,[3]; dosage printed as 'about M',less than 4%
"Cc1nn(C)cc1NC(=O)CSc1nc2cc3c(cc2cc1C#N)OCCO3 [AP-R358, 2-((8-cyano-2,3-dihydro-[1,4]dioxino[2,3-g]quinolin-7-yl)thio)-N-(1,3-dimethyl-1H-pyrazol-4-yl)acetamide]",cell survival,[1]; at 0.625 (unit uncertain),above 90%
same,cell survival,[1]; at 10 (unit uncertain),about 20%
same,cell survival,[2]; at 0.625 (unit uncertain),above 90%
same,cell survival,[2]; at 10 (unit uncertain),about 20%
same,cell survival,[3]; at 0.625 (unit uncertain),above 90%
same,cell survival,[3]; at 10 (unit uncertain),about 20%
"Cc1cc(F)ccc1NC(=O)CSc1nc2cc3c(cc2cc1C#N)OCCO3 [AP-R343, 2-({8-cyano-2H,3H-[1,4]dioxino[2,3-g]quinolin-7-yl}sulfanyl)-N-(4-fluoro-2-methylphenyl)acetamide]",cancer cell survival rate compared to the DMSO control,[1]; [4],less than 5%
same,cancer cell survival rate compared to the DMSO control,[2]; [4],less than 5%
same,cancer cell survival rate compared to the DMSO control,[3]; about 10^−6 M to about 10^−5 M,less than 5%
"N#Cc1cc2cc3c(cc2nc1SCC(=O)Nc1ccccc1C(N)=O)OCCO3 [AP-R230, 2-[2-(8-cyano-2H,3H-[1,4]dioxino[2,3-g]quinolin-7-ylsulfanyl)acetamido]benzamide]",cancer cell survival rate compared to the DMSO control,"[2]; about 5 μM to about 10 μM, 72 hours",less than 4%
same,cancer cell survival rate compared to the DMSO control,[3]; about 5 μM to about 10 μM,less than 4%
"Cc1ccc(CN2CCCC2)cc1NC(=O)CSc1nc2cc3c(cc2cc1C#N)OCCO3 [AP-R235, 2-[(8-cyano-2,3-dihydro-[1,4]dioxino[2,3-g]quinolin-7-yl)sulfanyl]-N-[2-methyl-5-(pyrrolidin-1-ylmethyl)phenyl]acetamide hydrochloride]",cancer cell survival rate compared to the DMSO control,"[2]; about 10 μM, 72 hours",less than 10%
same,cancer cell survival rate compared to the DMSO control,[3]; about 10 μM,less than 2%
